Source: ChEMBL document CHEMBL1201862, “PubChem BioAssay data set” (2004)
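In this assay, cells in 96-well plates receive the compound at five concentrations for 48 hours. Endpoints are linearly interpolated between the surrounding concentrations. GI50: concentration for 50% inhibition of growth.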 Active and inactive are the calls of the source. No stated cut-off is given here; in the data, active = GI50 up to about 1.1 µM and inactive = higher.

Key:
Experiment in all cases: growth of human tumour cells (NCI), 48 h
[1] = system: HL-60
[2] = system: ACHN
[3] = system: M14
[4] = system: CAKI-1
[5] = system: EKVX
[6] = system: NCI-H522
[7] = system: SNB-19
[8] = system: PC-3
[9] = system: Malme-3M
[10] = system: NCI/ADR-RES
[11] = system: HCT-116
[12] = system: RXF 393
[13] = system: A549
[14] = system: CCRF-CEM
[15] = system: NCI-H460
[16] = system: UACC-62
[17] = system: K562
[18] = system: SW-620
[19] = system: OVCAR-3
[20] = system: DU-145

Measured: GI50

C=C(C)[C@H]1C=C[C@@H](OC(C)=O)[C@@]2(COC(C)=O)[C@H](OC(=O)CCC)[C@H]3[C@@H](OC(C)=O)[C@@H](C)C[C@]3(O)C(=O)[C@@](C)(OC(C)=O)[C@H]12
inactive: [1] 33.5 µM | [2] 34.2 µM | [3] 31.8 µM | [4] > 100 µM | [5] 38.2 µM | [6] 56 µM | [7] 66.2 µM | [8] 31.6 µM | [9] 45.3 µM | [10] 42.5 µM | [11] 37.6 µM | [12] > 100 µM | [13] 32.7 µM | [14] 42.4 µM | [15] 21.2 µM | [16] 66.5 µM | [17] 31.6 µM | [18] 55 µM

Cc1nc(O)nc(N/N=C/c2c3ccccc3c(Cl)c3ccccc23)c1C(=O)Nc1ccc(Cl)cc1
inactive: [1] 19 µM | [2] 33.8 µM | [3] 79.3 µM | [4] 99.5 µM | [6] > 100 µM | [7] 92.5 µM | [8] 10.8 µM | [19] 58.3 µM | [9] > 100 µM | [20] > 100 µM | [11] 65.9 µM | [13] 63.4 µM | [14] 32.3 µM | [15] 45.4 µM | [16] 50.5 µM | [17] 68.5 µM | [18] 52.6 µM

COc1cc(CNc2nc3cc(C(F)(F)F)ccc3nc2C)cc(OC)c1OC
inactive: [1] 16.5 µM | [2] 13.6 µM | [3] 12.4 µM | [4] 24.7 µM | [5] 17 µM | [6] 18.3 µM | [7] 35.1 µM | [19] 25.2 µM | [9] 17.5 µM | [10] > 10 µM | [20] 26.4 µM | [11] 19.3 µM | [12] 16.6 µM | [13] 28.4 µM | [14] 20.3 µM | [15] 16.3 µM | [16] 7.96 µM | [17] 23 µM | [18] 17.1 µM

O=C1[C@H](O)[C@@H]2C(O)O[C@H]3[C@@H]2N1C[C@H]3[Si](c1ccccc1)(c1ccccc1)c1ccccc1 (stereo partly drawn)
inactive: [2] > 100 µM | [3] > 100 µM | [4] > 100 µM | [5] > 100 µM | [7] > 100 µM | [8] > 100 µM | [19] > 100 µM | [10] > 100 µM | [20] > 100 µM | [11] > 100 µM | [12] 20.2 µM | [13] > 100 µM | [15] > 100 µM | [16] > 100 µM | [17] > 100 µM | [18] > 100 µM

COc1ccc(C2SC(=N)Nc3c2c(C)nn3C(=O)Cc2ccccc2)cc1 (stereo not drawn)
inactive: [1] > 100 µM | [2] > 100 µM | [3] > 100 µM | [4] > 100 µM | [5] > 100 µM | [6] > 100 µM | [7] > 100 µM | [8] > 100 µM | [9] > 100 µM | [20] > 100 µM | [11] > 100 µM | [13] > 100 µM | [14] > 100 µM | [15] > 100 µM | [16] > 100 µM | [17] > 100 µM | [18] > 100 µM

CCC(C(=O)C(=O)OC)P1(=O)OC(C)(C)CN1C(C)(C)C (stereo not drawn)
inactive: [2] > 100 µM | [3] > 100 µM | [4] > 100 µM | [5] > 100 µM | [7] > 100 µM | [8] > 100 µM | [19] > 100 µM | [9] > 100 µM | [10] > 100 µM | [20] > 100 µM | [11] > 100 µM | [13] > 100 µM | [15] > 100 µM | [16] 22.6 µM | [17] > 100 µM | [18] > 100 µM

CC1=N[C@](C)(C2CC3C=CC2C3=O)COC1=O (stereo partly drawn)
inactive: [1] > 100 µM | [2] > 100 µM | [3] > 100 µM | [4] > 100 µM | [5] > 100 µM | [6] > 100 µM | [7] > 100 µM | [8] > 100 µM | [19] > 100 µM | [9] > 100 µM | [20] > 100 µM | [11] > 100 µM | [12] > 100 µM | [13] > 100 µM | [14] > 100 µM | [15] > 100 µM | [16] > 100 µM | [17] > 100 µM | [18] > 100 µM

CC1=C2C(=O)O[C@@H](c3ccoc3)[C@]2(C)CCC1=O [FRAXINELLONONE]
inactive: [2] > 100 µM | [3] > 100 µM | [4] > 100 µM | [5] > 100 µM | [7] > 100 µM | [8] > 100 µM | [19] > 100 µM | [10] > 100 µM | [20] > 100 µM | [11] > 100 µM | [13] > 100 µM | [14] > 100 µM | [15] > 100 µM | [16] > 100 µM | [17] > 100 µM | [18] > 100 µM
